Results on six molecules are retold here after patent US5939437A, “CCK and gastrin receptor ligands” (James Black Foundation Limited, priority 1994, dated 1999).

Test [1] concerns the target T1, CCKA (Cavia porcellus, UniProt Q63931).
T1 construct: The pancreatata were homogenised in 40 ml ice-cold HEPES buffer; from tissue; host or cells: pancreas membranes of male Dunkin Hartley guinea-pigs
T1 sequence (Q63931 1-430): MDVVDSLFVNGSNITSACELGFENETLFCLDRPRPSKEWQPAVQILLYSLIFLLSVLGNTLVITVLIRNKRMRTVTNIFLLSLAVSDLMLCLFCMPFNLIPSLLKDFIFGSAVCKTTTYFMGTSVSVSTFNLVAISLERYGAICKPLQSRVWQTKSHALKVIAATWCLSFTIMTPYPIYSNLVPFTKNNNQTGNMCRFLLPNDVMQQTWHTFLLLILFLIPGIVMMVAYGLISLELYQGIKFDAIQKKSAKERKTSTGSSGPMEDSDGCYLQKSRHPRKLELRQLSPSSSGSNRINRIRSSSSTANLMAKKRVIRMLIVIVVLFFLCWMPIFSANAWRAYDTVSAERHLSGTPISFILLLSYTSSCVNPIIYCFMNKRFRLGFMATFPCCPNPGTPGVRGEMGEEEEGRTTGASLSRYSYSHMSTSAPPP
Kind of test: CCKA binding assay (guinea-pig pancreas membranes). Particulars: [125I]-CCK8(S) 200 pM, 0.375 μM PD134,308 present, 150 minutes at 21±3° C.; for Ki: read-out: CCKA pKi (converted). On the procedure: The compounds of the examples were also tested in a CCKA binding assay as follows:
The pancreatata were removed from male guinea-pigs (200-300 g; Dunkin Hartley) and placed in ice-cold HEPES buffer (pH 7.2@21 ±3° C.). The pancreatata were homogenised in 40 ml ice-cold HEPES buffer using a polytron (Brinkman, PT10, setting 10) 4×1 second. The homogenate was centrifuged at 39,800 g for 15 min at 4° C. The supernatant was discarded and the pellet re-suspended using a Teflon-in-glass homogeniser in 20 volumes of fresh buffer and re-centrifuged as above. The final pellet was re-suspended using a Teflon-in-glass homogeniser to a tissue concentration of 1 mg.ml^-1 (original wet weight), and filtered through 500 μm pore-size Nytex mesh.
The membranes (400 μl; containing 0.375 μM PD134,308) are incubated for 150 minutes at 21±3° C. in a final volume of 0.5 ml with HEPES buffer containing [^125 I]-CCK8 (S) (50 μl; 200 pM) and competing compound. Total and non-specific binding of [^125 I]-CCK^8 (S) are defined using 50 μl of buffer and 50 μl of 100 nM L-364,718respectively. The assay is terminated by rapid filtration through pre-soaked Whatman GF/B filters using a Brandell Cell Harvester. The filters were washed (3×3 ml) with ice-cold 50 mM Tris HCl (pH 7.4 at 4° C. and bound radioactivity is determined by counting (1 min) in a gamma counter.

Test [2] deals with T2, Gastrin (Rattus norvegicus, UniProt P30553).
T2 construct: The stomach was excised and flushed with ca. 1 ml unbuffered physiological saline solution; from tissue; host or cells: isolated whole stomach of immature rats (33-50 g, ca. 21 days old)
T2 sequence (P30553 1-452): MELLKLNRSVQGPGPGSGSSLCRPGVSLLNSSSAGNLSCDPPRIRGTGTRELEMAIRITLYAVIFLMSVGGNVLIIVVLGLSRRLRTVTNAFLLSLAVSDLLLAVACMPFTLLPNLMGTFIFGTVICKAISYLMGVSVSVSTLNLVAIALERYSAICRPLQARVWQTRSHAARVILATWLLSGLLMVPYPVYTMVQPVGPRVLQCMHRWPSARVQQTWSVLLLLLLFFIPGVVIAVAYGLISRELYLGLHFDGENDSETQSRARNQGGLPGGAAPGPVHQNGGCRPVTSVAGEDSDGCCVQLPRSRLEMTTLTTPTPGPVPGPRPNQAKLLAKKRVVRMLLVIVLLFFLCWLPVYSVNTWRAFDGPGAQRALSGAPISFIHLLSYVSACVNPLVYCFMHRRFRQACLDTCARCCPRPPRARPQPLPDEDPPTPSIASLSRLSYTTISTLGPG
Kind of test: gastrin antagonist activity in an immature rat stomach assay (pentagastrin-stimulated acid secretion, isolated stomach). Particulars: cumulative pentagastrin dose-response curves, 60 min after drug; for Kb: read-out: Gastrin pKB (converted). The procedure: The compounds of the examples were also tested for gastrin antagonist activity in an immature rat stomach assay. The procedure was follows:
The oesophagus of immature rats (33-50 g, ca. 21 days old) was ligated at the level of the cardiac sphincter and the duodenal sphincter was cannulated. The stomach was excised and flushed with ca. 1 ml unbuffered physiological saline solution. The fundus was punctured and cannulated. A further 4-5 ml of unbuffered solution was flushed through the stomach to ensure the preparation was not leaking. The stomach was lowered into a jacketed organ bath containing 40 ml of buffered solution containing 3×10^-8 M5methylfurmethide, maintained at 37° and gassed vigorously with 95% O2 /5% CO2. The stomach was continuously perfused at a rate of 1 ml min^-1 with unbuffered solution gassed with 100% O2 with the perfusate passing over an internally referenced pH-electrode fixed 12 cm above the stomach.
After 120 min of stabilisation the drugs were added directly to the serosal solution in the organ bath and after a further 60 min cumulative pentagastrin dose-response curves were started. Changes in acid secretion were monitored and the curves analysed according to Black et. al., Br. J. Pharmacol., 1985, 86, 581.

Test [3] addresses T3, CCKB (Mus musculus, UniProt P56481).
T3 construct: The cortex was dissected, weighed and homogenised in 40 ml ice-cold buffer; from tissue; host or cells: cerebral cortex membranes of male CD1 mice (Charles River)
T3 sequence (P56481 1-453): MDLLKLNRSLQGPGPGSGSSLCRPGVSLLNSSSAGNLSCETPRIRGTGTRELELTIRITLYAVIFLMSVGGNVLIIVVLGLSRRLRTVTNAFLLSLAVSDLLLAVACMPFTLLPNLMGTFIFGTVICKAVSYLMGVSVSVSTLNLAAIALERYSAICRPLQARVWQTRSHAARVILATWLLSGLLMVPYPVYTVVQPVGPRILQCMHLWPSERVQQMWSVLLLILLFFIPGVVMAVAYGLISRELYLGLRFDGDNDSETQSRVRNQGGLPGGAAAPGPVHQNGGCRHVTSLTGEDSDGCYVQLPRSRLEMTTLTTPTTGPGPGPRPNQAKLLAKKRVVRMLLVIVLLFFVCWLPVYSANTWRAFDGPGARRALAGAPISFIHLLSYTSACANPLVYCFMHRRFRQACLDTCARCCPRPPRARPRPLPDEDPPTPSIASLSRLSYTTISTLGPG
As to the kind of experiment: radioligand binding assay at the CCKB (CCK8 [sic]) receptor in mouse cortical membranes. The conditions noted are these: [125I]-CCK8S 200 pM, 150 min at 21±3° C.; for Ki: read-out: CCKB pKi (converted). On the procedure: The compounds of the examples were tested for binding at the CCK8 receptor in mouse cortical membranes by means of a radioligand binding assay. The procedure was as follows: The whole brains from male mice (CD1 22-25 g; Charles River) were removed and placed in ice-cold buffer (pH7.2@21±3° C.) of the following composition (mM); 10 HEPES, 130 NaCl, 4.7 KCl, 5 MgCl2, 1 EDTA and containing 0.25 g.1^-1 bacitracin. The cortex was dissected, weighed and homogenised in 40 ml ice-cold buffer using a Teflon-in-glass homogeniser. The homogenate was centrifuged at 39,800 g for 20 min at 4° C., the supernatant discarded and the pellet resuspended by homogenisation in fresh buffer. The homogenate was recentrifuged (39,800 g; 20 min@4° C.) and the final pellet was resuspended in HEPES buffer to give a tissue concentration of 2 mg.ml^-1 (original wet weight). The membranes ([…]) were incubated for 150 min at 21±3° C. in a final volume of 0.5 ml with HEPES buffer containing [^25 I]-CCK8S (0.05 ml; 200 pM NEN 2200 Ci.mmol^-1) and competing compound. Total and non-specific binding of [^125 I]-CCK8S were defined using 0.05 ml of buffer and 0.05 ml of […] L-365,260, respectively. The assay was terminated by rapid filtration through pre-soaked Whatman GF/B 35 filters using a Brandell Cell harvester. The filters were washed (3×3 ml) with ice-cold 5 mM Tris-HCl (pH7.4@4° C.) and bound radioactivity determined by counting (1 min.) in a gamma-counter.

Regarding `O=C(O)c1cc(NC(=O)[C@H](Cc2ccccc2)NC(=O)c2ccccc2C(=O)NCc2ccc3ccccc3c2)cc(C(=O)O)c1` [Example 6, (1R-(3,5-dicarboxyphenylaminocarbonyl)-2-phenylethylaminocarbonyl)-2-(2-naphthalenemethylaminocarbonyl)-benzene], the “CCKA pKi” value in test [1] was found to be 6.3. Besides, the “Gastrin pKB” value in test [2] is reported as 6.1. Further, in test [3], the “CCKB pKi” value turned out to be 6.3.
As to `Nc1ccc(C(=O)NCC23CC4CC(CC(C4)C2)C3)c(C(=O)N[C@@H](Cc2ccccc2)C(=O)Nc2cc(C(=O)O)cc(C(=O)O)c2)c1` [Example 17, 1-(1S-(3,5-dicarboxyphenylamino-carbonyl)-2-phenylethylaminocarbonyl)-2-(1-adamantanemethyl-aminocarbonyl)-5-aminobenzene], the Ki in test [1] was 12600 nM; in test [3] it was 50.1 nM. In test [2], the Kb was 20 nM.
The like results for `O=C(O)c1cc(NC(=O)[C@H](Cc2ccccc2)NC(=O)c2cc([N+](=O)[O-])ccc2C(=O)NCC23CC4CC(CC(C4)C2)C3)cc(C(=O)O)c1` [Example 15, 1-(1S-(3,5-dicarboxyphenylamino-carbonyl)-2-phenylethylaminocarbonyl)-2-(l-adamantanemethyl-aminocarbonyl)-5-nitrobenzene] were, in that order, 1000 nM, 1000 nM and 316 nM.
In the case of `O=C(O)c1cc(NC(=O)[C@H](Cc2ccc(O)cc2)NC(=O)c2ccccc2C(=O)NCC23CC4CC(CC(C4)C2)C3)cc(C(=O)O)c1` [Example 2, (1S-(3,5-dicarboxyphenylaminocarbonyl)-2-(4-hydroxyphenyl)-ethylaminocarbonyl)-2-(1-adamantanemethyl-aminocarbonyl)-benzene], the results for the Ki in test [1] and in test [3] were 1580 nM and 1260 nM, respectively. Moreover, the Kb in test [2] was 25.1 nM.
Consider `O=C(O)c1cc(NC(=O)[C@H](Cc2ccccc2)NC(=O)c2cocc2C(=O)NCC23CC4CC(CC(C4)C2)C3)cc(C(=O)O)c1` [Example 12, 3-(1S-(3,5-dicarboxyphenylamino-carbonyl)-2-phenylethylaminocarbonyl)-4-(1-adamantanemethyl-aminocarbonyl)furan], for which the “CCKA pKi” value in test [1] is given as 5.2. Also, in test [2], the “Gastrin pKB” value turned out to be 6.5. The “CCKB pKi” value in test [3] was found to be 6.3.
On to `COc1ccc(C(=O)NCC23CC4CC(CC(C4)C2)C3)c(C(=O)N[C@@H](Cc2ccccc2)C(=O)Nc2cc(C(=O)O)cc(C(=O)O)c2)c1` [Example 19, 1-(1S-(3,5-dicarboxyphenylamino-carbonyl)-2-phenylethylaminocarbonyl)-2-(1-adamantanemethyl-aminocarbonyl)-5-methoxybenzene], for which the Ki was 2000 nM in test [1] and 158 nM in test [3]. In test [2], the Kb is 12.6 nM.
